The values below come from patent US20230348416A1, “GPR52 MODULATOR COMPOUNDS” (Heptares Therapeutics Limited, priority 2020, published 2023).

Test [1] addresses T1, human GPR52 (Homo sapiens, UniProt Q9Y2T5).
T1 construct: expressed in transfected cells; host or cells: HEKf suspension cells infected with BacMam virus
Briefly: GPR52 Agonist Functional cAMP Assay. It is filed as cell-based. The note with it: for EC50: HEKf cells infected with human GPR52 BacMam virus, HTRF cAMP, 30 min at 37° C., read-out: PEC50 average (converted); for Emax (%) / Emax: maximal response normalised to DMSO (0%) and compound 7m of J. Med. Chem., 2014, 57, 5226 (100%). On the procedure:
GPR52 Agonist Functional cAMP Assay
HEKf suspension cells were infected for 24 h with 0.1% v/v human GPR52 expressing BacMam virus, a modified baculovirus designed for mammalian gene expression. Following BacMam infection, cells were pelleted by centrifugation (335 g, 5 min), resuspended in cell freezing medium (Sigma) and frozen at −150° C. until required. On experiment day, 25 nL GPR52 compound dilutions, prepared in DMSO, were stamped onto proxiplates (PerkinElmer) by a LabCyte ECHO acoustic dispenser. Frozen cells were thawed and resuspended in assay stimulation buffer (Cisbio) containing 0.5 mM 3-iso-butyl-1-methylxanthine (IBMX, Sigma) to achieve a density of 2000 cells per well. 10 μl cells were added to assay plates using a Multidrop Combi Reagent Dispenser (ThermoFisher) before centrifugation (335 g, 1 min). Cells were incubated with compounds at 37° C. for 30 min prior to addition of cAMP detection reagents (HiRange cAMP kit, Cisbio) which were prepared according to the manufacturer's instructions. Plates were shaken for 1 h at room temperature before reading on a PHERAstar FS plate reader (BMG Labtech) using standard HTRF settings. HTRF ratios were obtained by dividing the acceptor emissions (665 nm) by the donor emissions (620 nm) and multiplying by 10,000.
Background: Time-resolved FRET reads energy transfer from a long-lived donor to a nearby acceptor.

The test system of test [2] is caffeine-induced hyperlocomotor activity. Briefly: Attenuation of caffeine-induced locomotor activity in rat. The format is in vivo, male Sprague-Dawley rats. The note with it: PO 60 min before caffeine 15 mg/kg SC, locomotor activity over 2 h, FIG. 1. The source says: Caffeine, a non-selective adenosine receptor antagonist, is a psychostimulant which increases rodent locomotor activity principally via blockade of A2A receptors (Br. J. Pharmacol., 2000, 129, 1465). These receptors are densely expressed on the terminals of GABAergic striatopallidal neurons in the indirect pathway of the basal ganglia, in which dopamine D2 receptors are co-expressed (J. Comp. Neurol., 1998, 401, 163; J. Comp. Neurol., 2001, 431, 331). Tonic activation of A2A receptors decreases the affinity of D2 receptors to dopamine and antagonism of A2A receptors facilitates dopaminergic signalling (Curr. Pharm. Des., 2008, 14, 1468). […] Male Sprague-Dawley rats (200-250 g) were housed in groups with a 12 h light/dark cycle (lights on at 07.00), at an ambient temperature of 21±2° C. and with standard pelleted diet and water adlibitum. Testing was carried out in the light phase. On the day of the experiment, animals were habituated to the locomotor cages for a 60-minute period. Subsequently, they were dosed with vehicle or Example 2 Isomer 1 (0.1, 0.3, 1 and 3 mg/kg) by the oral route and returned to the appropriate locomotor cage. Example 2 Isomer 1 was formulated in a vehicle of 10% DMAC, 10% solutol (Kolliphor HS15) and 80% water (v/v/v). […] Locomotor activity was assessed for a 2 h period after caffeine treatment. […] SEMs were calculated from the residuals of the statistical model. […]

T1 sequence (Q9Y2T5 whole entry): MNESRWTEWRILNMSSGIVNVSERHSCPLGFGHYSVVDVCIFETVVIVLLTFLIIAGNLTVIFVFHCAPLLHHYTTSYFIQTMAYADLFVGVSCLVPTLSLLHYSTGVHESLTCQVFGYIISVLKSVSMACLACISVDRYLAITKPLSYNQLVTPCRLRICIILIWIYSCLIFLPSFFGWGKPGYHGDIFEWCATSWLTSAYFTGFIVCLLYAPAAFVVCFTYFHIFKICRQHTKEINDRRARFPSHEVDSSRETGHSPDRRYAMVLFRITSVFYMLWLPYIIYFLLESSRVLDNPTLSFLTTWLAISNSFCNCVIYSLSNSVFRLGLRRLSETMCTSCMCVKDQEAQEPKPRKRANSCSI

For `CC(=O)NC1CCCc2c1nnn2-c1cc(Cc2cc(F)cc(C(F)F)c2)ccn1` (single isomer, unassigned) [Example 13 Isomer 2, N-(1-(4-(3-(difluoromethyl)-5-fluorobenzyl)pyridin-2-yl)-4,5,6,7-tetrahydro-1H-benzo[d][1,2,3]triazol-4-yl)acetamide], in test [1], the EC50 was 5.01 nM and the “Emax (%)” value came out at 93%.

Broadly, the Emax is the maximal effect, on the per cent scale that the assay sets. Take `Fc1cc(Cc2ccnc(-n3nnc4c3CCCC4NC3COC3)c2)cc(C(F)(F)F)c1` (stereo not drawn) [Example 9, 1-(4-(3-fluoro-5-(trifluoromethyl)benzyl)pyridin-2-yl)-N-(oxetan-3-yl)-4,5,6,7-tetrahydro-1H-benzo[d][1,2,3]triazol-4-amine]: in test [1], the EC50 was 100 nM and the Emax amounted to 93%.

For the molecule `O=C(NC1CCCc2c1nnn2-c1cc(Cc2cc(F)cc(C(F)(F)F)c2)ccn1)C(F)F` (stereo not drawn) [Example 4, 2,2-difluoro-N-(1-(4-(3-fluoro-5-(trifluoromethyl)benzyl)pyridin-2-yl)-4,5,6,7-tetrahydro-1H-benzo[d][1,2,3]triazol-4-yl)acetamide], in test [1], the EC50 was 25.1 nM and the Emax is 87%.

`CC(=O)NC1CCCc2c1nnn2-c1cc(Cc2cc(F)cc(C(F)(F)F)c2)ccn1` (single isomer, unassigned) [Example 2 Isomer 2, N-(1-(4-(3-fluoro-5-(trifluoromethyl)benzyl)pyridin-2-yl)-4,5,6,7-tetrahydro-1H-benzo[d][1,2,3]triazol-4-yl)acetamide]: in test [1], the EC50 was 2510 nM and the Emax amounted to 78%.

For `NC1CCCc2c1nnn2-c1cc(Cc2cc(F)cc(C(F)(F)F)c2)ccn1` (single isomer, unassigned) [Example 1 Isomer 2, 1-(4-(3-fluoro-5-(trifluoromethyl)benzyl)pyridin-2-yl)-4,5,6,7-tetrahydro-1H-benzo[d][1,2,3]triazol-4-amine], in test [1], the EC50 is 63.1 nM and the “Emax (%)” value was determined as 97%.

Consider `Fc1cc(Cc2ccnc(-n3nnc4c3CCCC4NC3CCOC3)c2)cc(C(F)(F)F)c1` (stereo not drawn) [Example 10, 1-(4-(3-fluoro-5-(trifluoromethyl)benzyl)pyridin-2-yl)-N-(tetrahydrofuran-3-yl)-4,5,6,7-tetrahydro-1H-benzo[d][1,2,3]triazol-4-amine], for which, in test [1], the EC50 is 31.6 nM and the Emax turned out to be 94%.

Turning to `CNC1CCCc2c1nnn2-c1cc(Cc2cc(F)cc(C(F)(F)F)c2)ccn1` (stereo not drawn) [Example 7, 1-(4-(3-fluoro-5-(trifluoromethyl)benzyl)pyridin-2-yl)-N-methyl-4,5,6,7-tetrahydro-1H-benzo[d][1,2,3]triazol-4-amine], in test [1], the EC50 is 31.6 nM and the maximal effect (Emax) came to 98%.

Turning to `CC(=O)NC1CCCc2c1nnn2-c1cc(Cc2cc(F)cc(OC(F)F)c2)ccn1` (stereo not drawn) [Example 12, N-(1-(4-(3-(difluoromethoxy)-5-fluorobenzyl)pyridin-2-yl)-4,5,6,7-tetrahydro-1H-benzo[d][1,2,3]triazol-4-yl)acetamide], in test [1], the EC50 was 31.6 nM and the Emax came out at 87%.

In the case of `O=C(CF)NC1CCCc2c1nnn2-c1cc(Cc2cc(F)cc(C(F)(F)F)c2)ccn1` (stereo not drawn) [Example 5, 2-fluoro-N-[1-(4-{[3-fluoro-5-(trifluoromethyl)phenyl]methyl}pyridin-2-yl)-4,5,6,7-tetrahydro-1H-benzotriazol-4-yl]acetamide], in test [1], the EC50 is 39.8 nM and the Emax stood at 94%.

Turning to `CCC(=O)NC1CCCc2c1nnn2-c1cc(Cc2cc(F)cc(C(F)(F)F)c2)ccn1` (stereo not drawn) [Example 3, N-(1-(4-(3-fluoro-5-(trifluoromethyl)benzyl)pyridin-2-yl)-4,5,6,7-tetrahydro-1H-benzo[d][1,2,3]triazol-4-yl)propionamide], in test [1], the EC50 is 25.1 nM and the Emax came out at 96%.

For `CC(=O)NC1CCCc2c1nnn2-c1cc(Cc2cc(F)cc(CF)c2)ccn1` (stereo not drawn) [Example 14, N-(1-(4-(3-fluoro-5-(fluoromethyl)benzyl)pyridin-2-yl)-4,5,6,7-tetrahydro-1H-benzo[d][1,2,3]triazol-4-yl)acetamide], in test [1], the EC50 is 50.1 nM and the Emax worked out at 90%.

Take `NC1CCCc2c1nnn2-c1cc(Cc2cc(F)cc(C(F)(F)F)c2)ccn1` (stereo not drawn) [Example 1, 1-(4-(3-fluoro-5-(trifluoromethyl)benzyl)pyridin-2-yl)-4,5,6,7-tetrahydro-1H-benzo[d][1,2,3]triazol-4-amine]: in test [1], the EC50 is 25.1 nM and the Emax is 100%.

As for `CC(=O)NC1CCCc2c1nnn2-c1cc(Cc2cc(F)cc(C(F)F)c2)ccn1` (stereo not drawn) [Example 13, N-(1-(4-(3-(difluoromethyl)-5-fluorobenzyl)pyridin-2-yl)-4,5,6,7-tetrahydro-1H-benzo[d][1,2,3]triazol-4-yl)acetamide], in test [1], the EC50 is 12.6 nM and the Emax stood at 93%.

For the molecule `COCCNC1CCCc2c1nnn2-c1cc(Cc2cc(F)cc(C(F)(F)F)c2)ccn1` (stereo not drawn) [Example 8, 1-(4-(3-fluoro-5-(trifluoromethyl)benzyl)pyridin-2-yl)-N-(2-methoxyethyl)-4,5,6,7-tetrahydro-1H-benzo[d][1,2,3]triazol-4-amine], in test [1], the EC50 is 50.1 nM and the maximal response (Emax) is 94%.

In the case of `CC(=O)NC1CCCc2c1nnn2-c1cc(Cc2cc(F)cc(C(F)(F)F)c2)ccn1` (single isomer, unassigned) [Example 2 Isomer 1, N-(1-(4-(3-fluoro-5-(trifluoromethyl)benzyl)pyridin-2-yl)-4,5,6,7-tetrahydro-1H-benzo[d][1,2,3]triazol-4-yl)acetamide], in test [1], the EC50 is 15.8 nM and the “Emax (%)” value is reported as 91%. Also, in test [2], the “effect on caffeine-induced hyperlocomotor response” value was “dose-dependent reduction of the caffeine-induced hyperlocomotor response, reaching statistical significance across all time points at 3 and 10 mg/kg”.

For `NC1CCCc2c1nnn2-c1cc(Cc2cc(F)cc(C(F)(F)F)c2)ccn1` (single isomer, unassigned) [Example 1 Isomer 1, 1-(4-(3-fluoro-5-(trifluoromethyl)benzyl)pyridin-2-yl)-4,5,6,7-tetrahydro-1H-benzo[d][1,2,3]triazol-4-amine], in test [1], the EC50 is 12.6 nM and the Emax was determined as 101%.

Regarding `CC(=O)NC1CCCc2c1nnn2-c1cc(Oc2cc(F)cc(C(F)(F)F)c2)ccn1` (stereo not drawn) [Example 6, N-(1-(4-(3-fluoro-5-(trifluoromethyl)phenoxy)pyridin-2-yl)-4,5,6,7-tetrahydro-1H-benzo[d][1,2,3]triazol-4-yl)acetamide], in test [1], the EC50 is 126 nM and the Emax turned out to be 89%.

Regarding `CC(=O)NC1CCCc2c1nnn2-c1cc(Cc2cc(F)cc(C(F)F)c2)ccn1` (single isomer, unassigned) [Example 13 Isomer 1, N-(1-(4-(3-(difluoromethyl)-5-fluorobenzyl)pyridin-2-yl)-4,5,6,7-tetrahydro-1H-benzo[d][1,2,3]triazol-4-yl)acetamide], in test [1], the EC50 was 501 nM and the Emax came to 73%.

On to `CC(=O)NC1CCCc2c1nnn2-c1cc(Cc2cccc(C(F)(F)F)c2)ccn1` (stereo not drawn) [Example 11, N-(1-(4-(3-(trifluoromethyl)benzyl)pyridin-2-yl)-4,5,6,7-tetrahydro-1H-benzo[d][1,2,3]triazol-4-yl)acetamide], for which, in test [1], the EC50 is 200 nM and the Emax was 91%.
